The record followed here is patent US11103432B2, “Use of 1,3 diglyceride in a topical composition for countering the weakening of the skin barrier” (PIERRE FABRE DERMO-COSMETIQUE, priority 2015, dated 2021).

Data set [1] in a line: ATR-FTIR of lipids extracted from forearm stratum corneum with added diglyceride (vCH2 vibration). Type of data set: physicochemical. As to conditions: 40° C., 3 μg of diglyceride for 30 μg of sample; for influence on the organisation of the intercorneocytory lipids (vCH2, FIG. 2): versus extract devoid of diglyceride. From the text: In order to evaluate the change in the organisation of the lipid phases of the stratum corneum, the inventors used infrared spectroscopy (ATR-FTIR: Attenuated total reflectance—Fourier transform infrared Spectroscopy) to analyse the variation, under the effect of the temperature, of the fundamental vibration bands of the vCH2 aliphatic chains of these lipids. More particularly, the position of the absorption band, corresponding to the stretching of the CH2, is located around wave number 2848 cm^−1. By way of example, an increase in the temperature of the surface of the skin causes a displacement of this bands to the higher wave numbers.
The study was carried out on lipids extracted from the stratum corneum of the forearm in order to have a model as close as possible to reality. We have used infrared spectroscopy (ATR-FTIR), to examine the variation, in function of temperature, of fundamental vCH2 vibration bands of aliphatic chains.
The tests were carried out in similar experimental conditions using lipids extracts from the forearm wherein a standardized quantity of diglyceride is added (3 μg of diglyceride for 30 μg of sample).
The test of the example 2 was reproduced with 1,2-distearoyl-rac-glycerol (1,2 diglyceride) and compared to the test carried out with glyceryl 1,3-distearate (1,3 diglyceride).

Data set [2] is described as follows: Benzo[a]pyrene skin penetration study, Franz diffusion cell. The note with it: human, without pre-treatment, 24 h, read-out: bioavailability (skin + receptor fluid) of benzo[a]pyrene, % of the dose applied to the skin. Type of data set: in vitro ADME, human. Here is the method: (§1) In order to evaluate the impact of 1,3-diglycerides on the organization of stratum corneum lipids and barrier function, in vitro, skin penetration studies of a known pollutant (benzo[a]pyrene (B(a)P) has been developed and performed. On the same donors, FTIR (Fourier transform infrared) measurement and B(a)P skin penetration were assessed to link lipid organization and the “outside-in” skin barrier function modulations, when the skin is heated up to 42° C.
(§2) Secondly, the impact of pre-treatment with 3% and 15% of glyceryl 1,3 distearate formulated in dimethicone on the modification of the SC (stratum corneum) lipid organization and B(a)P skin penetration provoked by the temperature elevation has been evaluated.
(§3) • OECD Guidelines for the testing of chemicals: guideline 428, skin absorption: in vitro method (13 Apr. 2004); • SCCS Guidelines, basic criteria for the in-vitro assessment of dermal absorption of cosmetics ingredients, updated March 2006.
(§4) For the skin delivery study, two temperatures were set. The classical temperature at the surface of the skin for skin delivery studies is 32° C. This temperature corresponds to the temperature at the surface of the skin in vivo. […]
(§5) The skin penetration study was carried out on 8 donors, the same donor was used for all the conditions:
(§6) The study was carried out on 8 donors, the same donor was used for all the conditions. B(a)P recovery should be comprised between 85% and 115% of the applied dose, in accordance with OECD 428 and SCCS guidelines.
(§7) • % of the applied dose at surface, stratum corneum, skin and receptor fluid; • μg/cm^2 of B(a)P at surface, stratum corneum, skin and receptor fluid. Results were presented with 2 decimals for the percentages and the quantities in μg/cm^2. Formula used in this report: • Standard error of the mean: • sem=Sd/√n • Bioavailability:
(§8) Sum of the quantities found in the skin and receptor fluid.
(§9) The inter-group comparison was performed by a paired Student's t-test with Graph Pad Prism software. The statistical analysis can be interpreted if n>5.

A further data set relates to Human skin. The description is as above. It counts as in vitro ADME. The note with it: for B(a)P at Surface, percentage of the applied dose (Mean) / B(a)P in Receptor fluid, percentage of the applied dose (Mean) / B(a)P in Skin, percentage of the applied dose (Mean) / B(a)P in Stratum corneum, percentage of the applied dose (Mean): n = 8. Here is the method: as §1, §2, §3, §4, §5, §6, §7, §8, §9

Data set [3] has as its system intercorneocytory lipids of the skin. As to the kind of experiment: In vivo ATR-FTIR on the inner forearm of healthy volunteers after application of glyceryl 1,3-distearate. As to conditions: for Δ νCH2, Average / Δ νCH2, single subjects: 40° C., versus control zone. Also noted: species or system human. Here is the method:
This study was carried out on health volunteers. The collection of infrared data was done through the intermediary of the ATR-FTIR sensor on the inner face of the forearm on a zone of 10 cm^2.
A treated zone (with application in vivo of glyceryl 1,3 distearate) and a control zone (without application of glyceryl 1,3 distearate) were determined.
Two concentrations in glyceryl 1,3-distearate were evaluated (table 2: 0.5 mg/cm^2 and table 3: 0.15 mg/cm^2).
At T0: the skin is first heated to between 30 and 45° C.
Then after application in vivo of glyceryl 1,3-distearate on the treated zone, an evaluation is made of the variation in the wave number associated with the vCH2 vibration comparatively to the reference measurement without product applied (control zone) at different times after T0: T 30 minutes, T 1 h30 minutes and T 4 hours.
Tables 2 and 3: express the variation of the wave number associated with the vCH2 vibration of the aliphatic chains of the intercorneocytory lipids at 40° C. in the presence of glyceryl 1,3-distearate comparatively to the reference measurement without glyceryl 1,3-distearate.

Data set [4] deals with stratum corneum lipids of human skin explants. As to the kind of experiment: FTIR measurement of human skin explants with or without pre-treatment (position of CH2 symmetric stretching band). The procedure:
The skin samples were heated at the rate of 1° C./min, and spectra were collected between 28° C. and 43° C.
Lipids organization—FTIR measurement: After 30 min of pre-treatment, FTIR measurements were performed to evaluate the molecular organization of the lipid matrix in the stratum corneum. The procedure is based on the study of the position of the CH2 symmetric stretching band, around 2850 cm^−1, depending on the temperature: the skin samples were heated at the rate of 1° C./min and spectra were collected between 28° C. and 43° C. with and without pre-treatment. The position of the CH2 symmetric stretching band is characteristic of the lipid organization and can be related to the barrier function.
FTIR measurement of skin explant (position of CH2 symmetric stretching band) depending on the temperature;
FTIR measurements were performed on human skin explants (8 donors) with or without pre-treatment. The skin samples were heated at the rate of 1° C./min, and spectra were collected between 28° C. and 43° C.

Setting [5] is: 0.15 mg/cm^2 (table title), 30 min.
Where [6] appears, read: 0.15 mg/cm^2 (table title), 1 h 30.
Setting [7] is: 0.15 mg/cm^2 (table title), 4 h.
Where [8] appears, read: 3% pre-treatment in dimethicone, 32° C., 24 h.
Where [9] appears, read: 3% pre-treatment in dimethicone, 42° C., 24 h.
[10] abbreviates: 15% pre-treatment in dimethicone, 32° C., 24 h.
[11] abbreviates: 15% pre-treatment in dimethicone, 42° C., 24 h.

“And” between values parts separate entries of the source, which are not always exact repeats. Equal values may be shown once. Read-outs that look alike come from different tables or passages of the source.

The bioavailability is the share of a dose that reaches the circulation, judged against a reference dose that is usually intravenous.

Consider `CCCCCCCCCCCCCCCCCC(=O)OCC(CO)OC(=O)CCCCCCCCCCCCCCCCC` (racemic) [1,2-distearoyl-rac-glycerol], for which, in data set [1], the “Δ νCH2: variation in the wave number of the νCH2 vibration of the aliphatic chains of the intercorneocytory lipids, with or without diglyceride” value is -0.65 cm⁻¹.
Regarding `CCCCCCCCCC(=O)OCC(O)COC(=O)CCCCCCCCC` [1,3-dicaprin], the “influence on the organisation of the intercorneocytory lipids (vCH2, FIG. 2)” value in data set [1] is “no influence”.
On the same count and under the same terms, for `CCCCCCCCCCCC(=O)OCC(O)COC(=O)CCCCCCCCCCC` [1,3-dilauroylglycerol] the value was “no influence”.
Turning to `c1ccc2c(c1)cc1ccc3cccc4ccc2c1c34` [B(a)P, benzo[a]pyrene, reference compound], the bioavailability at 24 h in data set [2] (skin temperature 32° C.) was at most 2.95%. Besides, the bioavailability at 24 h in data set [2] (skin temperature 42° C.) came to 6.95%. Besides, in the data set with Human skin (human), the “B(a)P concentration in the receptor fluid corresponding to the worst case” value was determined as 12.51 µg/L and the “percentage of B(a)P found in the receptor fluid, worst case” value is on record as 0.13 % of the applied dose. Moreover, the “B(a)P recovered at the surface, % of the applied dose” value in the data set on Human skin (human, 24 h) is “up to 94.5%”. The “bioavailability (skin + receptor fluid) of benzo[a]pyrene, % of the dose applied to the skin” value with Human skin (without pre-treatment, skin temperature 32° C., 24 h) stood at 2.95%.
Take `CCCCCCCCCCCCCCCCCC(=O)OCC(O)COC(=O)CCCCCCCCCCCCCCCCC` [glyceryl 1,3-distearate]: in data set [1], the “Δ νCH2: variation in the wave number of the νCH2 vibration of the aliphatic chains of the intercorneocytory lipids, with or without diglyceride” value is -1.43 cm⁻¹. The “Δ νCH2, Average” value in data set [3] (setting [5]) was -2.02 cm⁻¹; in data set [3] (setting [6]) it was -2.08 cm⁻¹; in data set [3] (setting [7]) it was -1.89 cm⁻¹; in data set [3] (0.5 mg/cm^2, 30 min) it was -2.46 cm⁻¹; in data set [3] (0.5 mg/cm^2, 1 h 30), -2.41 cm⁻¹; in data set [3] (0.5 mg/cm^2, 4 h) it was -2.17 cm⁻¹. Also, the “Δ νCH2, single subjects” value in data set [3] (setting [5]) was -1.87 cm⁻¹ and -2.16 cm⁻¹; in data set [3] (setting [6]), -1.91 cm⁻¹ and -2.25 cm⁻¹; in data set [3] (setting [7]), -1.64 cm⁻¹ and -2.15 cm⁻¹; in data set [3] (0.5 mg/cm^2, 30 min), -2.56 cm⁻¹ and -3.02 cm⁻¹ and -2.71 cm⁻¹; in data set [3] (0.5 mg/cm^2, 1 h 30) it was -2.65 cm⁻¹ and -2.62 cm⁻¹ and -2.6 cm⁻¹; in data set [3] (0.5 mg/cm^2, 4 h), -2.6 cm⁻¹ and -2.29 cm⁻¹ and -2.18 cm⁻¹. The “persistence of the stabilising effect after application” value in data set [3] (skin heated between 30 and 45° C.) is “at least 4 hours”. In addition, the “organisation of the intercorneocytory spaces of the skin” value in data set [3] (skin heated between 30 and 45° C., normal conditions of use) is “stabilise the organisation of the intercorneocytory spaces”. Further, the “position of the CH2 symmetric stretching band” value in data set [4] (3% in dimethicone as pre-treatment, 30 min, 43° C., basal 2852.12) came to 2848.7 cm⁻¹. For the same molecule, in data set [4] (3% pre-treatment, 28° C. to 43° C., 0.81 without pre-treatment), the “shift of the CH2 symmetric stretching band induced by the heating of the skin” value is 0.05 cm⁻¹. Also, the “impact of the heating on the lipid organization” value in data set [4] (pre-treatment with 3% or 15%, T tests, p value<0.05) is “decrease significantly”. The “B(a)P at Surface, percentage of the applied dose (Mean)” value was 94.66% in the data set on Human skin (setting [8]), 90.39% with Human skin (setting [9]), 94.99% in the data set on Human skin (setting [10]) and 92.68% in the data set on Human skin (setting [11]). For the same molecule, the “B(a)P in Receptor fluid, percentage of the applied dose (Mean)” value in the data set with Human skin (setting [8]) was 0.05%; in the data set on Human skin (setting [9]) it was 0.17%; with Human skin (setting [10]), 0.04%; in the data set on Human skin (setting [11]), 0.15%. The “B(a)P in Skin, percentage of the applied dose (Mean)” value with Human skin (setting [8]) is on record as 2.09%; in the data set with Human skin (setting [9]), 5.18%; in the data set on Human skin (setting [10]), 1.87%; with Human skin (setting [11]), 4.40%. The “B(a)P in Stratum corneum, percentage of the applied dose (Mean)” value was 0.82% in the data set with Human skin (setting [8]), 0.90% in the data set on Human skin (setting [9]), 0.77% with Human skin (setting [10]) and 0.75% in the data set with Human skin (setting [11]). Moreover, the “penetration of benzo[a]pyrene compared to the basal state and the vehicle” value in the data set on Human skin (dose of 3% or 15%, skin maintained in an atmosphere at 42° C.) is reported as “significant decrease”.
